Source: patent US10597388B2, “Pyridazinone herbicides” (FMC CORPORATION, priority 2014, dated 2020)

Key:
Format in all cases: in vivo
[1] = system: waterhemp_RES2 (ALS & HPPD resistant common waterhemp, Amaranthus rudis); assay: Test E greenhouse herbicide test, postemergence
Method in brief: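 Greenhouse test, 14–21 d after postemergence treatment of 2–18 cm plants; percent control was assessed visually, 0–100, against untreated plants.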

[2] = system: oat, wild (wild oat, Avena fatua); assay: Test D controlled growth environment herbicide test, pre- and postemergence; settings: for Oat, Wild plant response rating / Plant response rating (scale of 0 to 100), Oat, Wild: 31 g ai/ha
Method in brief: (§1)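 Species sown in silt loam and sprayed preemergence, or grown in peat-based medium to 2–18 cm (1- to 4-leaf stage) and sprayed postemergence, with compounds in non-phytotoxic solvent plus surfactant. Visual injury scored versus controls after 14–21 d in a controlled environment, 0 (no effect) to 100 (complete control).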

[3] = system: barley, winter (winter barley, Hordeum vulgare); assay: as above
Method in brief: as §1

[4] = system: windgrass (Apera spica-venti); assay: as above; settings: for Windgrass plant response rating / Plant response rating (scale of 0 to 100), Windgrass: 31 g ai/ha
Method in brief: as §1

[5] = system: pigweed (Amaranthus retroflexus); assay: as above; settings: for Pigweed plant response rating / Plant response rating (scale of 0 to 100), Pigweed: 31 g ai/ha
Method in brief: as §1

[6] = system: speedwell (bird's-eye speedwell, Veronica persica); assay: as above; settings: for Speedwell plant response rating / Plant response rating (scale of 0 to 100), Speedwell: 31 g ai/ha
Method in brief: as §1

[7] = system: field violet (Viola arvensis); assay: as above; settings: for Field Violet plant response rating / Plant response rating (scale of 0 to 100), Field Violet: 31 g ai/ha
Method in brief: as §1

[8] = system: radish, wild (wild radish, Raphanus raphanistrum); assay: as above; settings: for Radish, Wild plant response rating / Plant response rating (scale of 0 to 100), Radish, Wild: 31 g ai/ha
Method in brief: as §1

[9] = system: Russian thistle (Salsola kali); assay: as above; settings: for Russian Thistle plant response rating / Plant response rating (scale of 0 to 100), Russian Thistle: 31 g ai/ha
Method in brief: as §1

[10] = system: bluegrass (annual bluegrass, Poa annua); assay: as above
Method in brief: as §1

[11] = system: wheat, winter (winter wheat, Triticum aestivum); assay: as above; settings: for Wheat, Winter plant response rating / Plant response rating (scale of 0 to 100), Wheat, Winter: 31 g ai/ha
Method in brief: as §1

[12] = 31 g ai/ha, visual, scale 0 no effect to 100 complete control
[13] = 62 g ai/ha, scale 0 to 100 (0 no effect, 100 complete control)
[14] = 250 g ai/ha, scale 0 to 100 (0 no effect, 100 complete control)
[15] = Postemergence, scale 0 to 100 (0 no effect, 100 complete control)
[16] = Postemergence, 125 g ai/ha, visual rating on scale 0 (no effect) to 100 (complete control), 14 to 21 d
[17] = Postemergence, 250 g ai/ha, scale 0 to 100 (0 no effect, 100 complete control)
[18] = Preemergence, 62 g ai/ha, scale 0 to 100 (0 no effect, 100 complete control)
[19] = Preemergence, 125 g ai/ha, scale 0 to 100 (0 no effect, 100 complete control)
[20] = Preemergence, 250 g ai/ha, scale 0 to 100, 0 no effect, 100 complete control
[21] = postemergence, 62 g ai/ha, scale 0 to 100, 0 no effect, 100 complete control
[22] = Postemergence, 31 g ai/ha, scale 0 to 100 (0 no effect, 100 complete control)

Cc1ccc2ccccc2c1-c1c(OC(=O)OC(C)C)c(C)nn(C)c1=O [Compound 72]
Plant response rating, Waterhemp_RES2 [1, 12]: 35
Plant response rating, Waterhemp_RES2 [1, 13]: 40
Plant response rating, Waterhemp_RES2 ([1]; 125 g ai/ha, scale 0 to 100 (0 no effect, 100 complete control)): 50
Plant response rating, Waterhemp_RES2 [1, 14]: 65
Oat, Wild plant response rating [2, 15]: 85
Plant response rating, Oat, Wild [2, 16]: 95
Plant response rating, Oat, Wild [2, 17]: 98
Plant response rating (scale of 0 to 100), Oat, Wild ([2]; Preemergence): 65
Plant response rating, Oat, Wild [2, 18]: 75
Plant response rating, Oat, Wild [2, 19]: 85
Plant response rating, Oat, Wild [2, 20]: 95
Plant response rating, Oat, Wild [2, 21]: 85
Barley, Winter plant response rating [3, 22]: 10
Plant response rating, Barley, Winter [3, 16]: 30
Plant response rating, Barley, Winter [3, 17]: 35
Plant response rating (scale of 0 to 100), Barley, Winter ([3]; Preemergence, 31 g ai/ha): 5
Plant response rating, Barley, Winter [3, 18]: 25
Plant response rating, Barley, Winter [3, 19]: 50
Plant response rating, Barley, Winter [3, 20]: 75
Plant response rating, Barley, Winter [3, 21]: 20
Windgrass plant response rating [4, 15]: 65
Plant response rating, Windgrass [4, 16]: 80
Plant response rating, Windgrass [4, 17]: 85
Plant response rating (scale of 0 to 100), Windgrass ([4]; Preemergence): 25
Plant response rating, Windgrass [4, 18]: 65
Plant response rating, Windgrass [4, 19]: 80
Plant response rating, Windgrass [4, 20]: 90
Plant response rating, Windgrass [4, 21]: 75
Pigweed plant response rating [5, 15]: 95
Plant response rating, Pigweed [5, 16]: 100
Plant response rating, Pigweed [5, 17]: 100
Plant response rating (scale of 0 to 100), Pigweed ([5]; Preemergence): 35
Plant response rating, Pigweed [5, 18]: 85
Plant response rating, Pigweed [5, 19]: 95
Plant response rating, Pigweed [5, 20]: 100
Plant response rating, Pigweed [5, 21]: 100
Speedwell plant response rating [6, 15]: 75
Plant response rating, Speedwell [6, 16]: 100
Plant response rating, Speedwell [6, 17]: 80
Plant response rating (scale of 0 to 100), Speedwell ([6]; Preemergence): 5
Plant response rating, Speedwell [6, 18]: 70
Plant response rating, Speedwell [6, 20]: 100
Plant response rating, Speedwell [6, 21]: 75
Field Violet plant response rating [7, 15]: 90
Plant response rating, Field Violet [7, 16]: 95
Plant response rating, Field Violet [7, 17]: 95
Plant response rating (scale of 0 to 100), Field Violet ([7]; Preemergence): 10
Plant response rating, Field Violet [7, 18]: 75
Plant response rating, Field Violet [7, 19]: 75
Plant response rating, Field Violet [7, 20]: 95
Plant response rating, Field Violet [7, 21]: 95
Radish, Wild plant response rating [8, 15]: 75
Plant response rating, Radish, Wild [8, 16]: 90
Plant response rating, Radish, Wild [8, 17]: 95
Plant response rating (scale of 0 to 100), Radish, Wild ([8]; Preemergence): 0
Plant response rating, Radish, Wild [8, 18]: 0
Plant response rating, Radish, Wild [8, 19]: 50
Plant response rating, Radish, Wild [8, 20]: 50
Plant response rating, Radish, Wild [8, 21]: 80
Russian Thistle plant response rating [9, 15]: 70
Plant response rating, Russian Thistle [9, 16]: 80
Plant response rating, Russian Thistle [9, 17]: 85
Plant response rating (scale of 0 to 100), Russian Thistle ([9]; Preemergence): 0
Plant response rating, Russian Thistle [9, 18]: 10
Plant response rating, Russian Thistle [9, 19]: 15
Plant response rating, Russian Thistle [9, 20]: 25
Plant response rating, Russian Thistle [9, 21]: 75
Bluegrass plant response rating [10, 22]: 20
Plant response rating, Bluegrass [10, 16]: 40
Plant response rating, Bluegrass [10, 17]: 55
Plant response rating (scale of 0 to 100), Bluegrass ([10]; Preemergence, 31 g ai/ha): 10
Plant response rating, Bluegrass [10, 18]: 25
Plant response rating, Bluegrass [10, 19]: 25
Plant response rating, Bluegrass [10, 20]: 50
Plant response rating, Bluegrass [10, 21]: 35
Wheat, Winter plant response rating [11, 15]: 25
Plant response rating, Wheat, Winter [11, 16]: 50
Plant response rating, Wheat, Winter [11, 17]: 60
Plant response rating (scale of 0 to 100), Wheat, Winter ([11]; Preemergence): 5
Plant response rating, Wheat, Winter [11, 18]: 10
Plant response rating, Wheat, Winter [11, 19]: 25
Plant response rating, Wheat, Winter [11, 20]: 45
Plant response rating, Wheat, Winter [11, 21]: 35

Cc1cc2ccccc2c(-c2c(O)c(C)nn(C)c2=O)c1C [Compound 34]
Plant response rating, Waterhemp_RES2 [1, 12]: 40
Plant response rating, Waterhemp_RES2 [1, 13]: 80
Plant response rating, Waterhemp_RES2 [1, 14]: 70
Oat, Wild plant response rating [2, 15]: 75
Plant response rating, Oat, Wild [2, 16]: 95
Plant response rating, Oat, Wild [2, 17]: 95
Plant response rating (scale of 0 to 100), Oat, Wild ([2]; Preemergence): 70
Plant response rating, Oat, Wild [2, 18]: 75
Plant response rating, Oat, Wild [2, 19]: 85
Plant response rating, Oat, Wild [2, 20]: 90
Plant response rating, Oat, Wild [2, 21]: 85
Plant response rating, Barley, Winter [3, 22]: 0
Plant response rating, Barley, Winter [3, 16]: 0
Plant response rating, Barley, Winter [3, 17]: 20
Plant response rating (scale of 0 to 100), Barley, Winter ([3]; Preemergence, 31 g ai/ha): 0
Plant response rating, Barley, Winter [3, 18]: 0
Plant response rating, Barley, Winter [3, 19]: 0
Barley, Winter plant response rating [3, 20]: 65
Plant response rating, Barley, Winter [3, 21]: 0
Windgrass plant response rating [4, 15]: 40
Plant response rating, Windgrass [4, 16]: 65
Plant response rating, Windgrass [4, 17]: 75
Plant response rating (scale of 0 to 100), Windgrass ([4]; Preemergence): 15
Plant response rating, Windgrass [4, 18]: 25
Plant response rating, Windgrass [4, 19]: 55
Plant response rating, Windgrass [4, 20]: 70
Plant response rating, Windgrass [4, 21]: 50
Pigweed plant response rating [5, 15]: 100
Plant response rating, Pigweed [5, 16]: 100
Plant response rating, Pigweed [5, 17]: 100
Plant response rating (scale of 0 to 100), Pigweed ([5]; Preemergence): 50
Plant response rating, Pigweed [5, 18]: 95
Plant response rating, Pigweed [5, 19]: 100
Plant response rating, Pigweed [5, 20]: 100
Plant response rating, Pigweed [5, 21]: 100
Speedwell plant response rating [6, 15]: 65
Plant response rating, Speedwell [6, 16]: 100
Plant response rating, Speedwell [6, 17]: 100
Plant response rating (scale of 0 to 100), Speedwell ([6]; Preemergence): 100
Plant response rating, Speedwell [6, 18]: 100
Plant response rating, Speedwell [6, 19]: 100
Plant response rating, Speedwell [6, 20]: 100
Plant response rating, Speedwell [6, 21]: 75
Field Violet plant response rating [7, 15]: 75
Plant response rating, Field Violet [7, 16]: 95
Plant response rating, Field Violet [7, 17]: 95
Plant response rating (scale of 0 to 100), Field Violet ([7]; Preemergence): 15
Plant response rating, Field Violet [7, 18]: 25
Plant response rating, Field Violet [7, 19]: 75
Plant response rating, Field Violet [7, 20]: 95
Plant response rating, Field Violet [7, 21]: 100
Radish, Wild plant response rating [8, 15]: 65
Plant response rating, Radish, Wild [8, 16]: 90
Plant response rating, Radish, Wild [8, 17]: 95
Plant response rating (scale of 0 to 100), Radish, Wild ([8]; Preemergence): 0
Plant response rating, Radish, Wild [8, 18]: 0
Plant response rating, Radish, Wild [8, 19]: 60
Plant response rating, Radish, Wild [8, 20]: 60
Plant response rating, Radish, Wild [8, 21]: 85
Russian Thistle plant response rating [9, 15]: 70
Plant response rating, Russian Thistle [9, 16]: 80
Plant response rating, Russian Thistle [9, 17]: 85
Plant response rating (scale of 0 to 100), Russian Thistle ([9]; Preemergence): 0
Plant response rating, Russian Thistle [9, 18]: 0
Plant response rating, Russian Thistle [9, 19]: 10
Plant response rating, Russian Thistle [9, 20]: 15
Plant response rating, Russian Thistle [9, 21]: 80
Bluegrass plant response rating [10, 22]: 10
Plant response rating, Bluegrass [10, 16]: 15
Plant response rating, Bluegrass [10, 17]: 20
Plant response rating (scale of 0 to 100), Bluegrass ([10]; Preemergence, 31 g ai/ha): 0
Plant response rating, Bluegrass [10, 18]: 25
Plant response rating, Bluegrass [10, 19]: 50
Bluegrass plant response rating [10, 20]: 60
Plant response rating, Bluegrass [10, 21]: 15
Wheat, Winter plant response rating [11, 15]: 5
Plant response rating, Wheat, Winter [11, 16]: 15
Plant response rating, Wheat, Winter [11, 17]: 25
Plant response rating (scale of 0 to 100), Wheat, Winter ([11]; Preemergence): 0
Plant response rating, Wheat, Winter [11, 18]: 0
Plant response rating, Wheat, Winter [11, 19]: 25
Plant response rating, Wheat, Winter [11, 20]: 40
Plant response rating, Wheat, Winter [11, 21]: 25
